Tests used:
Experiment in all cases: Experiment on weeding effect in post-emergence stage
Format in all cases: in vivo
Details in all cases: dose 15 g a.i./ha, fresh weight control rate level
[1] = system: Veronica didyma Tenore
Source text: (§1) Experiment on weeding effect in post-emergence stage:
(§2) Monocotyledonous and dicotyledonous weed seeds (Descurainia sophia, Capsella bursa-pastoris, Abutilon theophrasti, Galium aparine, Stellaria media, Lithospermum arvense, Rorippa indica, Alopecurus aequalis, Alopecurus japonicus, Beckmannia syzigachne, Sclerochloa dura, Conyza Canadensis, Phleum paniculatum, Veronica didyma Tenore, Eleusine indica, Bromus japonicus, Aegilops tauschii, Phalaris arundinacea, Amaranthus retroflexus, Chenopodium album, Commelina communis, Sonchus arvensis, Convolvulus arvensis, Cirsium setosum, Solanum nigrum, Acalypha australis, Digitaria sanguinalis, Echinochloa crusgalli, Setaria viridis, Setaria glauca, Leptochloa chinensis, Monochoria vaginalis, Sagittaria trolia, Scirpus juncoides, Cyperus rotundus, Cyperus iria, Cyperus difformis, Elmbristylis, Portulaca oleracea, Xanthium sibiricum, Pharbitis nil) and major crop seeds (wheat, corn, rice, soybean, cotton, oilseed rape, millet, sorghum, potato, sesame, ricinus) were placed in plastic pots filled with soil, then covered with 0.5-2 cm of soil, allowed to grow in a good greenhouse environment. After 2 weeks of sowing, the test plants were treated in the 2-3 leaf stage. The tested compounds of the present invention were respectively dissolved in acetone, then added with Tween 80 and 1.5 liter/ha of emulsifiable concentrate of methyl oleate as synergist, diluted with a certain amount of water to obtain a solution with a certain concentration, and sprayed with a spray tower onto the plants. After the application, the plants were cultured for 3 weeks in the greenhouse, and then the experimental results of the weeding were counted. The doses of the used compounds were 500, 250, 125, 60, 15 g a.i./ha, and the averages were obtained by repeating for three times.

[2] = system: Galium aparine
Source text: as §1, §2

[3] = system: Echinochloa crusgalli
Source text: as §1, §2

[4] = system: Eleusine indica
Source text: as §1, §2

[5] = system: Amaranthus retroflexus
Source text: as §1, §2

[6] = system: Leptochloa chinensis
Source text: as §1, §2

[7] = system: Setaria viridis
Source text: as §1, §2

[8] = system: Digitaria sanguinalis
Source text: as §1, §2

[9] = system: Abutilon theophrasti
Source text: as §1, §2

| Structure (SMILES) | weeding effect in post-emergence stage, Veronica didyma Tenore (level) [1] | weeding effect in post-emergence stage, Galium aparine (level) [2] | weeding effect in post-emergence stage, Echinochloa crusgalli (level) [3] | weeding effect in post-emergence stage, Eleusine indica (level) [4] | weeding effect in post-emergence stage, Amaranthus retroflexus (level) [5] | weeding effect in post-emergence stage, Leptochloa chinensis (level) [6] | weeding effect in post-emergence stage, Setaria viridis (level) [7] | weeding effect in post-emergence stage, Digitaria sanguinalis (level) [8] | weeding effect in post-emergence stage, Abutilon theophrasti (level) [9] |
| --- | --- | --- | --- | --- | --- | --- | --- | --- | --- |
| Cn1c(=S)n(C)c(=O)n(-c2cc(C3=NOC(C)(C(=O)ON=C4CCCC4)C3)c(Cl)cc2F)c1=O (stereo not drawn) [Compound 146] | 5 (Level 5: growth control rate is above 85%) | 5 (Level 5: growth control rate is above 85%) | 5 (Level 5: growth control rate is above 85%) | 5 (Level 5: growth control rate is above 85%) | 5 (Level 5: growth control rate is above 85%) | 5 (Level 5: growth control rate is above 85%) | 5 (Level 5: growth control rate is above 85%) | 5 (Level 5: growth control rate is above 85%) | 5 (Level 5: growth control rate is above 85%) |
| CC(=NOC(=O)C1(C)CC(c2cc(-n3c(=O)n(C)c(=S)n(C)c3=O)c(F)cc2Cl)=NO1)C(C)(C)C (mixture of isomers) [Compound 81] | 5 (Level 5: growth control rate is above 85%) | 5 (Level 5: growth control rate is above 85%) | 5 (Level 5: growth control rate is above 85%) | 5 (Level 5: growth control rate is above 85%) | 5 (Level 5: growth control rate is above 85%) | 5 (Level 5: growth control rate is above 85%) | 5 (Level 5: growth control rate is above 85%) | 5 (Level 5: growth control rate is above 85%) | 5 (Level 5: growth control rate is above 85%) |
| C/C(=N\OC(=O)C1(C)CC(c2cc(-n3c(=O)n(C)c(=S)n(C)c3=S)c(F)cc2Cl)=NO1)c1ccccc1 (stereo not drawn) [Compound 70] | 5 (Level 5: growth control rate is above 85%) | 5 (Level 5: growth control rate is above 85%) | 5 (Level 5: growth control rate is above 85%) | 5 (Level 5: growth control rate is above 85%) | 5 (Level 5: growth control rate is above 85%) | 5 (Level 5: growth control rate is above 85%) | 5 (Level 5: growth control rate is above 85%) | 5 (Level 5: growth control rate is above 85%) | 5 (Level 5: growth control rate is above 85%) |
| CCOC(=O)C(C)=NOC(=O)C1(C)CC(c2cc(-n3c(=O)n(C)c(=S)n(C)c3=S)c(F)cc2Cl)=NO1 (stereo not drawn) [Compound 75] | 5 (Level 5: growth control rate is above 85%) | 5 (Level 5: growth control rate is above 85%) | 5 (Level 5: growth control rate is above 85%) | 5 (Level 5: growth control rate is above 85%) | 5 (Level 5: growth control rate is above 85%) | 5 (Level 5: growth control rate is above 85%) | 5 (Level 5: growth control rate is above 85%) | 5 (Level 5: growth control rate is above 85%) | 5 (Level 5: growth control rate is above 85%) |
| CC(C)=NOC(=O)C1(C)CC(c2nc(-n3c(=O)cc(C(F)(F)F)n(C)c3=O)c(F)cc2Cl)=NO1 (stereo not drawn) [Compound 170] | 5 (Level 5: growth control rate is above 85%) | 5 (Level 5: growth control rate is above 85%) | 5 (Level 5: growth control rate is above 85%) | 5 (Level 5: growth control rate is above 85%) | 5 (Level 5: growth control rate is above 85%) | 5 (Level 5: growth control rate is above 85%) | 5 (Level 5: growth control rate is above 85%) | 5 (Level 5: growth control rate is above 85%) | 5 (Level 5: growth control rate is above 85%) |
| C/C(=N\OC(=O)C1(C)CC(c2cc(-n3c(=O)n(C)c(=S)n(C)c3=S)c(F)cc2Cl)=NO1)C(C)C (stereo not drawn) [Compound 58] | 5 (Level 5: growth control rate is above 85%) | 5 (Level 5: growth control rate is above 85%) | 5 (Level 5: growth control rate is above 85%) | 5 (Level 5: growth control rate is above 85%) | 5 (Level 5: growth control rate is above 85%) | 5 (Level 5: growth control rate is above 85%) | 5 (Level 5: growth control rate is above 85%) | 5 (Level 5: growth control rate is above 85%) | 5 (Level 5: growth control rate is above 85%) |
| CC(C)=NOC(=O)C1(C)CC(c2cc(-n3c(=S)cc(C(F)(F)F)n(C)c3=O)c(F)cc2Cl)=NO1 (stereo not drawn) [Compound 197] | 5 (Level 5: growth control rate is above 85%) | 5 (Level 5: growth control rate is above 85%) | 5 (Level 5: growth control rate is above 85%) | 5 (Level 5: growth control rate is above 85%) | 5 (Level 5: growth control rate is above 85%) | 5 (Level 5: growth control rate is above 85%) | 5 (Level 5: growth control rate is above 85%) | 5 (Level 5: growth control rate is above 85%) | 5 (Level 5: growth control rate is above 85%) |
| C/C=N/OC(=O)C1(C)CC(c2cc(-n3c(=O)n(C)c(=S)n(C)c3=S)c(F)cc2Cl)=NO1 (stereo not drawn) [Compound 54] | 5 (Level 5: growth control rate is above 85%) | 5 (Level 5: growth control rate is above 85%) | 5 (Level 5: growth control rate is above 85%) | 5 (Level 5: growth control rate is above 85%) | 5 (Level 5: growth control rate is above 85%) | 5 (Level 5: growth control rate is above 85%) | 5 (Level 5: growth control rate is above 85%) | 5 (Level 5: growth control rate is above 85%) | 5 (Level 5: growth control rate is above 85%) |
| CC(C)=NOC(=O)C1(C)CC(c2cc(-n3c(=O)n(C)c(=S)n(C)c3=O)c(F)cc2Cl)=NO1 (stereo not drawn) [Compound 10] | 5 (Level 5: growth control rate is above 85%) | 5 (Level 5: growth control rate is above 85%) | 5 (Level 5: growth control rate is above 85%) | 5 (Level 5: growth control rate is above 85%) | 5 (Level 5: growth control rate is above 85%) | 5 (Level 5: growth control rate is above 85%) | 5 (Level 5: growth control rate is above 85%) | 5 (Level 5: growth control rate is above 85%) | 5 (Level 5: growth control rate is above 85%) |

Reference: patent US20230072860A1, “ISOXAZOLINE OXIME FORMATE COMPOUND, PREPARATION METHOD THEREFOR, HERBICIDAL COMPOSITION AND USE THEREOF” (QINGDAO KINGAGROOT CHEMICAL COMPOUND CO., LTD., priority 2020, published 2023)
